Laboratory results taken from patent US4791114A, “2-Benzimidazolylalkylthio (or -sulfinyl or -sulfonyl) derivatives, their preparation and their application as medicinal products” (501 Laboratorios Del, Dr. Esteve, priority 1986, dated 1988).

Experiments:
gastric acid secretion = experiment: Inhibition of gastric acid secretion in Shay rats (pylorus ligation); format: in vivo, male Wistar rats; conditions: Rattus norvegicus, 2 h, intraduodenal, two hours after pylorus ligation; for inhibition in vivo at 40 mg/kg: i.d., read-out: Percentage inhibition of gastric acid secretion
Text: Method of Shay [Shay, H.; Komarov, S. A.; Feis, S. S.; Merange, D.; Grvenstein, M.; Siplet, H.; Gastroenterology, 5, 43 (1945)--Visscher, F. E.; Seay, P. H.; Taxelaar, A. P.; Veldkamp, W.; Vander Brook, M. J.; J. Pharmac. Exp. Ther., 110, 188 (1954)--"Animal Experiments in Pharmacological Analysis", F. R. Domer; C. C. Thomas Pub., Springfield, Ill., USA, 1970, p. 140].
In this test, male Wistar rats weighing 200 to 250 grams are used, the animals being maintained fasted from the day preceding that of the trail, with access to water ad libitum. A minimum of 4 animals is used in each batch.
The rats are anesthetized with ethyl ether, laporotomy is performed and the pylorus is ligated, and the abdominal incision is then sutured. The administration of the products, with the vehicle for the control batch, is performed intraduodenally (i.d.) before the abdominal incision is sutured. The dose administered for the first trail is 40 mg/kg, and the fifty percent effectove dose (ED50) i.d. is also determined in a second trial. The vehicle used is 5% w/v gum arabic in double-distilled water.
Two hours after ligation of the pyrolus, the rats are sacrificed by prolonged anesthesia with ethyl ether, and the volume of the gastric juice is measured and the total acidity determined by means of a pH meter equipped with an automatic burette. For each product and for each dose tested, the percentage inhibition of gastric acid secretion is determined relative to the control batch.

[1] = Acute toxicity in mice (oral LD50, Litchfield and Wilcoxon); conditions: mouse, in vivo, suspended in 5% gum arabic
Method: Method of Litchfield and wilcoxon [Litchfield, J. T. and Wilcoxon, E. J., H. Pharmacol. Exp. Therap., 96, 19-113 (1949)].
The product is administered orally, suspended in 5% gum arabic in double-distilled water. The volume administered is 10 ml/kg. The fifty percent lethal dose (LD50) is calculated according to the method cited.

| Compound | ED50 (gastric acid secretion) [mg/kg] | inhibition in vivo at 40 mg/kg (gastric acid secretion) [%] | LD50 ([1]; female mice) [mg/kg] | LD50 ([1]; male mice) [mg/kg] |
| --- | --- | --- | --- | --- |
| c1cnc(SCc2nc3ccccc3[nH]2)nc1 [Example 1, 2-(2-benzimidazolylmethylthio)pyrimidine] | 13 | 98 | 2700 | 3200 |
| Cc1cc(C)nc(SCc2nc3ccccc3[nH]2)n1 [Example 3] | 16 | 88 | > 3200 | > 3200 |
| O=[N+]([O-])c1ccc(SCc2nc3ccccc3[nH]2)nc1 [Example 4] | 21 | 74 | – | – |
| Cc1cc2nc(CSc3ccccn3)[nH]c2cc1C [Example 6, 5,6-dimethyl-2-(2-pyridylthiomethyl)benzimidazole] | 19 | 92 | – | – |
| [O-][n+]1ccccc1SCc1nc2ccccc2[nH]1 [Example 7] | 19 | 95 | – | – |
| O=C(c1ccccc1)c1ccc2nc(CSc3ccccn3)[nH]c2c1 [Example 10, 5-benzoyl-2-(2-pyridylthiomethyl)benzimidazole] | 14 | 93 | – | – |
| O=C(c1ccccc1)c1ccc2nc(C[S+]([O-])c3ccccn3)[nH]c2c1 (centres unmarked) [Example 27, 5-benzoyl-2-(2-pyridylsulfinylmethyl)benzimidazole] | 7 | 95 | 3200 | 3200 |
| [O-][S+](Cc1nc2ccccc2[nH]1)c1ccccn1 (centres unmarked) [Example 28, 2-(2-pyridylsulfinylmethyl)benzimidazole] | 8 | 90 | 3200 | 3200 |
| O=[N+]([O-])c1ccc([S+]([O-])Cc2nc3ccccc3[nH]2)nc1 (centres unmarked) [Example 29] | 4 | 90 | 2400 | 2400 |
| Cc1cc2nc(C[S+]([O-])c3ccccn3)[nH]c2cc1C (centres unmarked) [Example 31] | 15 | 96 | > 6400 | > 6400 |
| [O-][S+](Cc1nc2cc(Cl)ccc2[nH]1)c1ccccn1 (centres unmarked) [Example 32] | 17 | 92 | – | – |
| Cc1cnc([S+]([O-])Cc2nc3cc(C(=O)c4ccccc4)ccc3[nH]2)c(C)c1 (centres unmarked) [Example 41] | 10 | 80 | – | – |
| Cc1ccnc([S+]([O-])Cc2nc3cc(C(=O)c4ccccc4)ccc3[nH]2)c1 (centres unmarked) [Example 44] | 10 | 66 | – | – |
| O=S(=O)(Cc1nc2ccc(Cl)cc2[nH]1)c1ccccn1 [Example 54, 5-chloro-2-(2-pyridylsulfonylmethyl)benzimidazole] | 24 | 70 | – | – |
| Cn1c(C[S+]([O-])c2ccccn2)nc2cc(C(=O)c3ccccc3)ccc21 (centres unmarked) [Example 60, 5-benzoyl-1-methyl-2-(2-pyridylsulfinylmethyl)benzimidazole] | 21 | 75 | – | – |
| CCOC(=O)n1c(C[S+]([O-])c2ccccn2)nc2ccc(C(=O)c3ccccc3)cc21 (centres unmarked) [Example 63, 6-benzoyl-1-carboxyethyl-2-(2-pyridylsulfinylmethyl)benzimidazole] | 16 | 81 | – | – |
